This passage reports IC50 results from ChEMBL document CHEMBL5344418, “Recent developments in antimalarial activities of 4-aminoquinoline derivatives” (Eur J Med Chem, 2023).

A word on the pIC50: it is the negative decadic logarithm of the IC50, by convention in mol/L. The term IC50 denotes the concentration at which inhibition is half-maximal.

SMILES strings stand for the structures. pIC50: −log10 of the molar value.

In series [1] the test system is Plasmodium falciparum. The series is described as follows: Antiplasmodial activity against Plasmodium falciparum 3D7 assessed as growth inhibition measured after 72 hrs by SYBR green dye based assay. Type of series: functional, organism-based. Particulars: 3D7, 72 h.
Series [2] concerns Plasmodium falciparum. The series is described as follows: Antiplasmodial activity against Plasmodium falciparum K1 assessed as growth inhibition measured after 72 hrs by SYBR green dye based assay. The following applies: K1, 72 h. The class given is functional, organism-based.
In series [3] the test system is Plasmodium falciparum. The series is described as follows: Antiplasmodial activity against Plasmodium falciparum W2 assessed as reduction in plasmodial growth after 48 hrs by fluorescence based analysis. Type of series: functional, organism-based. The following applies: W2, 48 h.
Series [4] is described as follows: Cytotoxicity against African green monkey Vero cells assessed as reduction in cell viability incubated for 24 hrs by MTT assay. Type of series: toxicity, cell-based. Particulars: African green monkey (Chlorocebus sabaeus). (Tetrazolium dyes change colour on reduction, which living cells bring about.)

In the case of `CCN1CCN(CC(CCSC)Nc2ccnc3cc(Cl)ccc23)CC1` (stereo not given), the figures for the pIC50 in the series with Plasmodium falciparum [1] and with Plasmodium falciparum [2] were 5.58 and less than 5.30, respectively.
`O=C(CCCN1C(=O)c2ccccc2C1=O)NCCCCCCCCNc1ccnc2cc(Cl)ccc12`: the negative-log IC50 (pIC50) in the series on Plasmodium falciparum [3] is 6.24. The IC50 at 24 h in series [4] came out at 102 µM.
Regarding `O=C(CCN1C(=O)c2ccc(N3CCN(CCO)CC3)cc2C1=O)NCCNc1ccnc2cc(Cl)ccc12`, in the series on Plasmodium falciparum [3], the pIC50 is 6.55.
For the compound `CC(CN1CCN(Cc2ccc3c(c2)OCO3)CC1)Nc1ccnc2cc(Cl)ccc12` (stereo not given), the values for the pIC50 in the series with Plasmodium falciparum [1] and with Plasmodium falciparum [2] were 6.97 and 7.15, respectively.
`O=C(CCCN1C(=O)c2ccccc2C1=O)NCCCCNc1ccnc2cc(Cl)ccc12`: in the series with Plasmodium falciparum [3], the pIC50 is 6.08. In addition, the 50% inhibitory concentration (IC50) at 24 h in series [4] was greater than 215 µM.
On the same counts, the results for `O=C(CN1C(=O)c2ccc(N3CCN(CCO)CC3)cc2C1=O)NCCNc1ccnc2cc(Cl)ccc12` are 5.98 and greater than 186 µM.
In the same order, the values of `O=C(CN1C(=O)c2ccccc2C1=O)NCCNc1ccnc2cc(Cl)ccc12` are 5.25 and greater than 245 µM.
`CSCCC(CN1CCN(c2ccccc2)CC1)Nc1ccnc2cc(Cl)ccc12` (stereo not given): the negative-log IC50 (pIC50) with Plasmodium falciparum [1] and in the series on Plasmodium falciparum [2] was less than 5.30 in each case.
As for `Clc1ccc2c(NCCN3CCN(Cc4ccc5c(c4)OCO5)CC3)ccnc2c1`, the negative logarithm of the IC50 (pIC50) in the series on Plasmodium falciparum [1] is 6.28; in the series on Plasmodium falciparum [2] it was 7.33.
In the case of `Clc1ccc2c(NC(Cc3ccccc3)CN3CCN(Cc4ccccc4)CC3)ccnc2c1` (stereo not given), the pIC50 in the series on Plasmodium falciparum [1] and with Plasmodium falciparum [2] was less than 5.30 throughout.
With `CCN(CC)c1ccc2c(c1)C(=O)N(CCC(=O)NCCNc1ccnc3cc(Cl)ccc13)C2=O`, the half-inhibitory concentration (IC50) at 24 h in series [4] came to 203 µM.
Take `CC(C)CC(CN1CCN(c2ncccn2)CC1)Nc1ccnc2cc(Cl)ccc12` (stereo not given): the pIC50 with Plasmodium falciparum [1] is 6.34; in the series on Plasmodium falciparum [2] it was 6.45.
With `O=C(CCN1C(=O)c2ccc(N3CCOCC3)cc2C1=O)NCCNc1ccnc2cc(Cl)ccc12`, the pIC50 in the series with Plasmodium falciparum [3] was 6.89. The IC50 at 24 h in series [4] stood at 26.5 µM.
In the case of `Clc1ccc2c(NC(CN3CCN(Cc4ccccc4)CC3)n3ccc4ccccc43)ccnc2c1` (stereo not given), the pIC50 in the series with Plasmodium falciparum [1] is 6.22; in the series on Plasmodium falciparum [2], 6.28.
As to `O=C(CCN1C(=O)c2ccc(F)cc2C1=O)NCCCCCCNc1ccnc2cc(Cl)ccc12`, in the series on Plasmodium falciparum [3], the negative-log IC50 (pIC50) is 6.18. Besides, the IC50 at 24 h in series [4] is 57.2 µM.
For `O=C(CN1C(=O)c2ccc(N3CCOCC3)cc2C1=O)NCCNc1ccnc2cc(Cl)ccc12`, the negative logarithm of the IC50 (pIC50) in the series with Plasmodium falciparum [3] is 5.49. For the same compound, in series [4], the concentration for half-maximal inhibition (IC50) at 24 h was greater than 203 µM.
Take `O=C(CCN1C(=O)c2ccccc2C1=O)NCCCCCCCCNc1ccnc2cc(Cl)ccc12`: the pIC50 in the series with Plasmodium falciparum [3] is 6.82. In addition, in series [4], the IC50 at 24 h was greater than 198 µM.
On the same counts, the results for `O=C(CCN1C(=O)c2ccc(N3CCN(CCO)CC3)cc2C1=O)NCCCCCCNc1ccnc2cc(Cl)ccc12` are 6.74 and greater than 165 µM.
On the same counts, the results for `O=C(CCCN1C(=O)c2ccccc2C1=O)NCCNc1ccnc2cc(Cl)ccc12` are 6.55 and greater than 229 µM.
On the same counts, the results for `O=C(CCN1C(=O)c2ccc(F)cc2C1=O)NCCNc1ccnc2cc(Cl)ccc12` are 6.44 and 93.2 µM.
On to `O=C(CCN1C(=O)c2ccccc2C1=O)NCCNc1ccnc2cc(Cl)ccc12`, for which the pIC50 with Plasmodium falciparum [3] was 6.52. Moreover, the IC50 at 24 h in series [4] is greater than 237 µM.
Take `Clc1ccc2c(NC(Cc3ccccc3)CN3CCN(Cc4ccc5c(c4)OCO5)CC3)ccnc2c1` (stereo not given): the pIC50 in the series on Plasmodium falciparum [1] is 6.12; in the series with Plasmodium falciparum [2], 7.05.
On to `O=C(CCN1C(=O)c2ccc(N3CCOCC3)cc2C1=O)NCCCCCCNc1ccnc2cc(Cl)ccc12`, for which, in the series with Plasmodium falciparum [3], the pIC50 was 6.19. Also, the IC50 at 24 h in series [4] was greater than 178 µM.
In the same order, the values of `O=C(CCN1C(=O)c2ccc(N3CCN(CCO)CC3)cc2C1=O)NCCCCNc1ccnc2cc(Cl)ccc12` are 6.85 and 169 µM.
Consider `CC(CN1CCN(c2ccccc2)CC1)Nc1ccnc2cc(Cl)ccc12` (stereo not given), for which the negative logarithm of the IC50 (pIC50) is 6.27 in the series on Plasmodium falciparum [1] and 6.11 with Plasmodium falciparum [2].
For `O=C(CCCN1C(=O)c2ccccc2C1=O)NCCCCCCNc1ccnc2cc(Cl)ccc12`, the negative-log IC50 (pIC50) in the series on Plasmodium falciparum [3] was 5.80. Moreover, the half-maximal inhibitory concentration (IC50) at 24 h in series [4] is greater than 203 µM.
With `CCN1CCN(CC(Nc2ccnc3cc(Cl)ccc23)n2ccc3ccccc32)CC1` (stereo not given), the pIC50 is 5.38 in the series on Plasmodium falciparum [1] and less than 5.30 in the series with Plasmodium falciparum [2].
Take `O=C(CN1C(=O)c2ccc(F)cc2C1=O)NCCCCCCNc1ccnc2cc(Cl)ccc12`: the pIC50 in the series on Plasmodium falciparum [3] was 5.83. For the same compound, the IC50 at 24 h in series [4] was greater than 207 µM.
In the same order, the values of `O=C(CN1C(=O)c2ccc(N3CCOCC3)cc2C1=O)NCCCCCCNc1ccnc2cc(Cl)ccc12` are 5.75 and 20.2 µM.
In the same order, the values of `CCN(CC)c1ccc2c(c1)C(=O)N(CC(=O)NCCCCNc1ccnc3cc(Cl)ccc13)C2=O` are 5.93 and 46.9 µM.
In the same order, the values of `O=C(CN1C(=O)c2ccc(F)cc2C1=O)NCCCCNc1ccnc2cc(Cl)ccc12` are 5.98 and greater than 220 µM.
For the compound `O=C(CCN1C(=O)c2ccc(N3CCOCC3)cc2C1=O)NCCCCNc1ccnc2cc(Cl)ccc12`, in the series on Plasmodium falciparum [3], the pIC50 was 6.66. Moreover, in series [4], the IC50 at 24 h is 136 µM.
On the same counts, the results for `O=C(CN1C(=O)c2ccc(N3CCOCC3)cc2C1=O)NCCCCNc1ccnc2cc(Cl)ccc12` are 5.89 and greater than 192 µM.
As for `O=C(CN1C(=O)c2ccccc2C1=O)NCCCCNc1ccnc2cc(Cl)ccc12`, the pIC50 with Plasmodium falciparum [3] is 5.44. Further, in series [4], the IC50 at 24 h was greater than 229 µM.
In the same order, the values of `O=C(CN1C(=O)c2ccc(N3CCN(CCO)CC3)cc2C1=O)NCCCCCCNc1ccnc2cc(Cl)ccc12` are 6.34 and greater than 169 µM.
In the same order, the values of `O=C(CN1C(=O)c2ccccc2C1=O)NCCCCCCNc1ccnc2cc(Cl)ccc12` are 5.47 and 248 µM.
For the compound `CCN(CC)c1ccc2c(c1)C(=O)N(CC(=O)NCCNc1ccnc3cc(Cl)ccc13)C2=O`, the pIC50 in the series with Plasmodium falciparum [3] is 5.94. Further, the half-maximal inhibitory concentration (IC50) at 24 h in series [4] is 44.4 µM.
On the same counts, the results for `CCN(CC)c1ccc2c(c1)C(=O)N(CCC(=O)NCCCCNc1ccnc3cc(Cl)ccc13)C2=O` are 6.59 and 84.4 µM.
Consider `O=C(CCN1C(=O)c2ccccc2C1=O)NCCCCCCNc1ccnc2cc(Cl)ccc12`, for which the negative logarithm of the IC50 (pIC50) with Plasmodium falciparum [3] is 6.54. Also, the IC50 at 24 h in series [4] was determined as 87.5 µM.
In the same order, the values of `O=C(CCN1C(=O)c2ccccc2C1=O)NCCCCNc1ccnc2cc(Cl)ccc12` are 6.39 and greater than 222 µM.
On the same counts, the results for `O=C(CN1C(=O)c2ccccc2C1=O)NCCCCCCCCNc1ccnc2cc(Cl)ccc12` are 6.62 and greater than 203 µM.
In the same order, the values of `O=C(CN1C(=O)c2ccc(N3CCN(CCO)CC3)cc2C1=O)NCCCCNc1ccnc2cc(Cl)ccc12` are 6.07 and greater than 177 µM.
With `CCN(CC)c1ccc2c(c1)C(=O)N(CC(=O)NCCCCCCNc1ccnc3cc(Cl)ccc13)C2=O`, the negative-log IC50 (pIC50) in the series with Plasmodium falciparum [3] was 5.91. Besides, the half-inhibitory concentration (IC50) at 24 h in series [4] was greater than 187 µM.
In the same order, the values of `O=C(CN1C(=O)c2ccc(F)cc2C1=O)NCCNc1cccc2cc(Cl)ccc12` are 5.70 and greater than 235 µM.
`CCN(CC)c1ccc2c(c1)C(=O)N(CCC(=O)NCCCCCCNc1ccnc3cc(Cl)ccc13)C2=O`: in the series with Plasmodium falciparum [3], the negative logarithm of the IC50 (pIC50) is 6.28. Also, the concentration for half-maximal inhibition (IC50) at 24 h in series [4] was greater than 182 µM.
In the same order, the values of `O=C(CCN1C(=O)c2ccc(F)cc2C1=O)NCCCCNc1ccnc2cc(Cl)ccc12` are 6.66 and 110 µM.
